Assay results taken from paper PMC9917184, “Synthesis and Biological Evaluation of Potential Oncoimmunomodulator Agents” (International Journal of Molecular Sciences, 2023).

What was measured:
c-Myc [1] = test: Total c-Myc relative quantification by flow cytometry in cancer cell lines; assay type: cell-based, human; conditions: 24 h
IL-6 = IL-6 secretion to the media by ELISA; assay type: cell-based, human; conditions: 100 μM, 24 h, control = 100
Method: We determined the effect of these compounds on the secretion of IL-6 in monocultures of MCF-7 cells, to establish the effect on cancer cells in monocultures of immune cells THP-1 and in co-cultures of MCF-7 and THP-1 (1:5 proportion). Assays were performed by ELISA using cell media after treatments with selected compounds at 100 μM for 24 h.

c-Myc [2] = test: Total c-Myc relative quantification by flow cytometry in cancer cell lines; assay type: cell-based, human
PD-L1 = PD-L1 (Homo sapiens, UniProt Q9NZQ7); test: Total PD-L1 relative quantification by flow cytometry in cancer cell lines; assay type: cell-based; set-up: Alexa Fluor® 647 Rabbit monoclonal Anti-PD-L1 (ab215251); endogenous in cells; host or cells: HT-29
Chain of PD-L1 (Q9NZQ7 19-290): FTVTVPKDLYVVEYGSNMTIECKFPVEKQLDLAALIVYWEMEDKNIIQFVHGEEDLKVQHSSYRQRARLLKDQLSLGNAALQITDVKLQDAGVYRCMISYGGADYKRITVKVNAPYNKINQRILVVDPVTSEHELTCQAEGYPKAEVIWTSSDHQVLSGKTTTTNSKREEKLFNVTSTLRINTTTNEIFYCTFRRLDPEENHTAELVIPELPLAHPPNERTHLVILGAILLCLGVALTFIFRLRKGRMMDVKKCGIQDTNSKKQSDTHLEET

[3] = A-549, 100 µM, relative to negative control (DMSO)
[4] = HT-29, 100 µM, detected target relative to negative control (DMSO)
[5] = MCF-7, 100 µM, relative to negative control (DMSO)

remaining activity at 10 µM (PD-L1; 24 h, HT-29, dose 10 µM) [%]	remaining activity at 25 µM (PD-L1; 24 h, HT-29, dose 25 µM) [%]	remaining activity at 50 µM (PD-L1; 24 h, HT-29, dose 50 µM) [%]	remaining activity at 10 µM (PD-L1; MCF7, 24 h, MCF-7, dose 10 µM) [%]	remaining activity at 25 µM (PD-L1; MCF7, 24 h, MCF-7, dose 25 µM) [%]	remaining activity at 50 µM (PD-L1; MCF7, 24 h, MCF-7, dose 50 µM) [%]	SMILES	% c-Myc (c-Myc [1]; [3]) [%]	% c-Myc (c-Myc [1]; [4]) [%]	% c-Myc (c-Myc [1]; [5]) [%]	Percentage of secreted IL-6 to the media (IL-6; MCF7 monoculture) [%]	Percentage of secreted IL-6 to the media (IL-6; MCF7 + THP-1 co-culture (1:5)) [%]	Percentage of secreted IL-6 to the media (IL-6; THP-1 monoculture) [%]	% c-Myc (c-Myc [2]; HT-29, dose 10 µM) [%]	% c-Myc (c-Myc [2]; HT-29, dose 25 µM) [%]	% c-Myc (c-Myc [2]; HT-29, dose 50 µM) [%]	% c-Myc (c-Myc [2]; MCF-7, dose 10 µM) [%]	% c-Myc (c-Myc [2]; MCF-7, dose 25 µM) [%]	% c-Myc (c-Myc [2]; MCF-7, dose 50 µM) [%]
–	–	–	–	–	–	Cc1c(COc2ccc(CN3CCCCC3C(=O)O)cc2Br)cccc1-c1ccccc1 (stereo not shown) [BMS-8, reference compound]	142 ± 8	119 ± 9	130 ± 12	41 ± 65	–	–	–	–	–	–	–	–
–	–	–	–	–	–	COc1ccc(C(OCCc2ccc(CCn3cc(-c4cccc(Br)c4)nn3)cc2)(c2ccccc2)c2ccc(OC)cc2)cc1 [Compound 5, 1-(4-(2-(bis(4-methoxyphenyl)(phenyl)methoxy)ethyl)phenethyl)-4-(3-bromophenyl)-1H-1,2,3-triazole]	72 ± 9	66 ± 10	61 ± 11	73 ± 29	137 ± 24	173 ± 24	–	–	–	–	–	–
–	–	–	–	–	–	COc1ccc(C(OCCc2ccc(CCn3cc(-c4ccccc4Br)nn3)cc2)(c2ccccc2)c2ccc(OC)cc2)cc1 [Compound 7, 1-(4-(2-(bis(4-methoxyphenyl)(phenyl)methoxy)ethyl)phenethyl)-4-(2-bromophenyl)-1H-1,2,3-triazole]	67 ± 6	43 ± 7	51 ± 3	91 ± 39	115 ± 4	158 ± 11	–	–	–	–	–	–
101 ± 2	111 ± 4	90 ± 3	52 ± 2	58 ± 3	69 ± 4	COc1ccc(C(OCCc2ccc(CCn3cc(-c4ccc(Br)cc4)nn3)cc2)(c2ccccc2)c2ccc(OC)cc2)cc1 [Compound 3, 1-(4-(2-(bis(4-methoxyphenyl)(phenyl)methoxy)ethyl)phenethyl)-4-(4-bromophenyl)-1H-1,2,3-triazole]	66 ± 5	67 ± 8	65 ± 4	92 ± 4	156 ± 12	183 ± 5	109 ± 9	100 ± 3	88 ± 5	56 ± 5	62 ± 5	75 ± 9
